Patent publication US10933126B2, “Clostridium difficile immunogenic compositions and methods of use” (The Board of Regents of the University of Oklahoma, priority 2018, dated 2021)

Columns and labels:
PSII = tested on: PSII; parameters: species or system B6 mice; details: mouse, in vivo
[1] = tested on: C. difficile VPI 10463 spores; assay: C. difficile spore challenge assay in immunized B6 mice (body weight); assay type: in vivo; details: 10^4 spores
Description: Non-immunized age- and sex-matched naïve B6 mice were Cefoperazone-treated and then treated with vehicle only (a) or were infected with 10^4 live C. difficile spores (b). Some mice were administered PSII alone followed by a PSII booster one week later (c), or administered vehicle only followed by the PSII booster one week later (d), or administered α-GC alone followed by the PSII booster (e), or administered a PSII and α-GC combination followed by the PSII booster (f), or administered α-GC alone followed by vehicle (g). Animals were then treated with the antibiotic Cefoperazone prior to being infected with 10^4 live C. difficile spores. Graphs show the percent of original weight, which was obtained daily and for the duration indicated. Five mice were used for each group except for the naïve-infected and the PSII/α-GC groups (n=10). […] In the uninfected control group (a), zero counts were detected (limit of detection in assay=10^2).
Immunizations: Mice were immunized s.c. in both flanks with a total of 15 μg or 50 μg PSII or PSII plus 4 μg α-GC, in a 200 μl total volume of sterile low-endotoxin PBS. The amount of α-GC administered has been determined in previous studies to exert a strong CD1d- and NKT-dependent effect on Ab responses. […]
Animal weight was then measured daily. […]

For `CCCCCCCCCCCCCCCCCCCCCCCCCC(=O)N[C@@H](CO[C@H]1O[C@H](CO)[C@H](O)[C@H](O)[C@H]1O)[C@H](O)[C@H](O)CCCCCCCCCCCCCC` [α-GC, (2S,3S,4R)-1-O-(α-D-Galactosyl)-N-hexacosanoyl-2-amino-1,3,4-octadecanetriol], the Anti-PSII titers (PSII) was “could not be detected”, the “Body weight after C. difficile challenge” value ([1]; α-GC alone, w/o a PSII booster (FIG. 6g)) was “did not protect against weight loss” and the “Body weight after C. difficile challenge” value ([1]; α-GC followed one week later with PSII (FIG. 6e)) was “no weight loss was observed”.
